In one assay the test system is A549 cells. In words: Mitochondrial respiration (OCR) by Seahorse XF analyzer. It is filed as cell-based, human. The conditions noted are these: 5 μM. The text has this:
As Ru5 is located in mitochondria and inhibits ATPase related to mitochondrial respiration, we then evaluated its impact on oxygen consumption rate (OCR) using the Seahorse XF analyzer. Ru5 inhibits ATP-linked respiration, basal respiration and maximal respiration capacity, and it also increases the proton leak and alters non-mitochondrial respiration (Fig. 2A and Fig. S43). Accordingly, Ru5 treatment leads to an increase in the opening of the mitochondrial permeability transition pore (MPTP) of A549 in a concentration-dependent manner (Fig. 2B). […] The colocalization of the fluorescence of dihydrorhodamine 123 (DHR-123) with MitoTracker Deep Red (MTDR) indicates ROS are mainly generated in mitochondria (Fig. 2E).
Figure 2. […] (A) Impact of Ru5 (5 μM) on mitochondrial respiration of A549 cells measured by Seahorse. The OCR was measured under basal conditions, and after the sequential addition of oligomycin (1 μM), carbonyl cyanide 4-(trifluoromethoxy)phenylhydrazone (FCCP, 0.8 μM) and a mixture of rotenone (0.5 μM) and antimycin A (0.5 μM, R&A). […] The cells were treated with Ru5 for 6 h and analyzed by flow cytometry. λex = 488 nm, λem = 520 ± 20 nm. (C) Impact of Ru5 (5 μM) on MMP measured by JC-1 staining. […]

A further assay deals with Ru5-treated cells. In words: Effect of cell death inhibitors on antiproliferative activity. Format: cell-based. The conditions noted are these: 24 h. The procedure:
Figure 4. Ru5 induces mitophagy and ferroptosis and inhibits EMT in vitro. (A) TEM images of A549 cells treated with vehicle (1% DMSO) or Ru5 (10 μM, 12 h). Red rectangles represent the region enlarged. Scale bar: 5 μm and 500 nm (enlarged). (B) The morphological examination of mitochondria in A549 cells treated with Ru5 (10 μM) for the indicated time intervals. MTG: λex = 514 nm; λem = 540 ± 20 nm. LTDR: λex = 633 nm; λem = 700 ± 20 nm. Scale bar: 20 μm. (C) Western blotting analysis showing the impact of Ru5 (24 h) on the expression of proteins related to mitochondrial dysfunction and ferroptosis. (D and E) The impact of different inhibitors on antiproliferative activity of Ru5 (24 h). (F) RT-qPCR analysis of EMT-related genes in A549 cells after Ru5 (10 μM, 12 h) treatment. (G) The impact of Ru5 (5 μM) on the migration of A549 cells was measured by a wound healing assay. Scale bar: 100 μm. (H) Quantitative analysis of the impact of Ru5 on wound healing. (I) Selective images of the impact of Ru5 (5 μM, 48 h) on the migration of A549 cells detected by transwell assay. Scale bar: 100 μm. Data are presented as means ± SD from three independent experiments. *P ≤ 0.05, **P ≤ 0.01, ***P ≤ 0.001, by Student's t-test.
We then used different specific inhibitors to further confirm the modes of cell death induced by Ru5. These inhibitors act on autophagy (3-methyladenine, 3-MA, Fig. 4D), ferroptosis (liproxstatin-1, Lip-1, Fig. 4E), necroptosis (necrostatin-1, Nec-1, Fig. S47A) and apoptosis (Z-VAD-FMK, Fig. S47B). The effect of 3-MA on the antiproliferative activity of Ru5 is concentration-dependent, with lower and higher concentrations enhancing and inhibiting the antiproliferative activity of Ru5, respectively. Thus, Ru5 induces cytoprotective autophagy at lower concentrations, while autophagic cell death is induced at higher concentrations. As expected, Lip-1 can relieve the antiproliferative activity of Ru5. However, Nec-1 and Z-VAD-FMK show no effect on the cell viability of Ru5-treated cells.

Data on 1 compound can be found in paper PMC11304990, “Identification of mitochondrial ATP synthase as the cellular target of Ru-polypyridyl-β-carboline complexes by affinity-based protein profiling” (National Science Review, 2024).

Turning to `F[P-](F)(F)(F)(F)F.F[P-](F)(F)(F)(F)F.[Ru+2].c1ccc2c(c1)[nH]c1c(-c3ncc[nH]3)nccc12.c1cnc2c(c1)ccc1cccnc12.c1cnc2c(c1)ccc1cccnc12` [Ru5], the “ATP-linked respiration, basal respiration and maximal respiration capacity (OCR)” value in the assay on A549 cells is on record as “inhibits”. In the assay on Ru5-treated cells, the “Effect of 3-MA (autophagy inhibitor) on antiproliferative activity” value is “concentration-dependent”, the “Effect of Lip-1 (ferroptosis inhibitor) on antiproliferative activity” value was “relieve”, the “Effect of Nec-1 (necroptosis inhibitor) on cell viability” value is “no effect” and the “Effect of Z-VAD-FMK (apoptosis inhibitor) on cell viability” value is recorded as “no effect”.
